Data as given in patent US20230124862A1, “BISMUTH THIOL COMPOUNDS AND COMPOSITIONS AND METHODS OF TREATING MICROBIAL CO-INFECTIONS” (Microbion Corporation, priority 2020, published 2023).
≈ marks a conversion by molar mass, not a printed value. Where “and” joins values, the source holds several entries; their conditions need not be identical. Identical values can stand only once. Like-named read-outs stand apart in the source and are kept apart here.

How the values were obtained:
[1] = test system: Gram-negative organisms (P. aeruginosa, E. coli, A. baumannii, H. influenzae); experiment: Broth microdilution MIC with pulmonary surfactant (Survanta); assay type: cell-based
[2] = test system: Gram-negative organisms (P. aeruginosa, E. coli, A. baumannii, H. influenzae); conditions: P. aeruginosa ATCC 27853; cited from earlier work
Haemophilus influenzae [3] = conditions: H. influenzae MMX 1224 (ATCC 49247), cited from earlier work
Haemophilus influenzae [4] = experiment: Broth microdilution MIC, Haemophilus influenzae clinical isolates; assay type: cell-based
B. cepacia = experiment: MIC testing of CF isolates; assay type: cell-based, Burkholderia cepacia; conditions: Burkholderia cepacia; strain BC17; read-out: MIC
Achromobacter spp. = experiment: MIC testing of CF isolates; assay type: cell-based; conditions: strain AX4, A. xylosoxidans; read-out: MIC
S. maltophilia = experiment: MIC testing of CF isolates; assay type: cell-based, Stenotrophomonas maltophilia; conditions: strain SM21
S. aureus ATCC 29213 = conditions: control strain ATCC 29213; cited from earlier work
P. aeruginosa = experiment: Checkerboard FIC/FICI assay; assay type: cell-based, Pseudomonas aeruginosa; conditions: for FICB / MICB: Amikacin in combination with BisEDT
B. multivorans = experiment: MIC testing of CF isolates; assay type: cell-based, Burkholderia multivorans; conditions: Burkholderia multivorans; strain BC5b; read-out: MIC
E. coli ATCC 25922 = conditions: control strain ATCC 25922; cited from earlier work
B. cenocepacia = experiment: MIC testing of CF isolates; assay type: cell-based, Burkholderia cenocepacia
[5] = test system: Burkholderia cepacia complex; experiment: Checkerboard FIC/FICI assay; assay type: cell-based, Burkholderia spp.; conditions: for MICB: MIC of Amikacin (Drug B) in combination with BisEDT
[6] = H. influenzae MMX 1224 (ATCC 49247)
[7] = P. aeruginosa 6322, one value per panel row D-G
[8] = P. aeruginosa 6977, by checkerboard
[9] = P. aeruginosa 7745, by checkerboard

C[C@@H](O)[C@H]1C(=O)N2C(C(=O)O)=C(SCCN=CN)C[C@H]12 [Imspenem]
MIC ([1]; A. baumanuii CSC 0288, 0 percent Survanta): 16 µg/mL (≈ 53.4 µM) | MIC ([1]; A. baumanuii CSC 0288, 1 percent Survanta): 16 µg/mL (≈ 53.4 µM) | MIC ([1]; A. baumanuii CSC 0288, 2.5 percent Survanta): 16 µg/mL (≈ 53.4 µM) | MIC ([1]; A. baumanuii CSC 0288, 5 percent Survanta): 16 µg/mL (≈ 53.4 µM) | MIC ([1]; B. cepucia MMX9040, 0 percent Survanta): 8 µg/mL (≈ 26.7 µM) | MIC ([1]; B. cepucia MMX9040, 1 percent Survanta): 8 µg/mL (≈ 26.7 µM) | MIC ([1]; B. cepucia MMX9040, 2.5 percent Survanta): 8 µg/mL (≈ 26.7 µM) | MIC ([1]; B. cepucia MMX9040, 5 percent Survanta): 8 µg/mL (≈ 26.7 µM) | MIC ([1]; B. cepucia MMX9040, 10 percent Survanta): 8 µg/mL (≈ 26.7 µM) | MIC ([1]; H. Influenzae ATCC 49247, 0 percent Survanta): 0.5 µg/mL (≈ 1.67 µM) | MIC ([1]; H. Influenzae ATCC 49247, 1 percent Survanta): 0.5 µg/mL (≈ 1.67 µM) | MIC ([1]; H. Influenzae ATCC 49247, 2.5 percent Survanta): 0.5 µg/mL (≈ 1.67 µM) | MIC ([1]; H. Influenzae MMX 2795, 0 percent Survanta): 1 µg/mL (≈ 3.34 µM) | MIC ([1]; P. aeruginosa ATCC 27853, 0 percent Survanta): 2 µg/mL (≈ 6.68 µM) | MIC ([1]; P. aeruginosa ATCC 27853, 1 percent Survanta): 2 µg/mL (≈ 6.68 µM) | MIC ([1]; P. aeruginosa ATCC 27853, 2.5 percent Survanta): 2 µg/mL (≈ 6.68 µM) | MIC ([1]; P. aeruginosa ATCC 27853, 5 percent Survanta): 2 µg/mL (≈ 6.68 µM) | MIC ([1]; P. aeruginosa ATCC 27853, 10 percent Survanta): 2 µg/mL (≈ 6.68 µM) | MIC ([1]; P. aeruginosa CDC 0444, 0 percent Survanta): >16 µg/mL | MIC ([1]; P. aeruginosa CDC 0444, 1 percent Survanta): >16 µg/mL | MIC ([1]; P. aeruginosa CDC 0444, 2.5 percent Survanta): >16 µg/mL | MIC ([1]; P. aeruginosa CDC 0444, 5 percent Survanta): >16 µg/mL | MIC ([1]; P. aeruginosa CDC 0444, 10 percent Survanta): >16 µg/mL | CLSI acceptable MIC QC range [2]: 1 to 4 µg/mL

C[C@H]1COc2c(N3CCN(C)CC3)c(F)cc3c(=O)c(C(=O)O)cn1c23 [LEV]
CLSI Quality Control Range (MIC) (Haemophilus influenzae [3]): (0.008-0.03) | MIC (Haemophilus influenzae [4]; H. influenzae MMX 0797, BLNAR): 0.015 µg/mL (≈ 0.0415 µM) | MIC (Haemophilus influenzae [4]; [6]): 0.015 µg/mL (≈ 0.0415 µM) | MIC (Haemophilus influenzae [4]; H. influenzae MMX 1302): 0.015 µg/mL (≈ 0.0415 µM) | MIC (Haemophilus influenzae [4]; H. influenzae MMX 1304): 0.015 µg/mL (≈ 0.0415 µM) | MIC (Haemophilus influenzae [4]; H. influenzae MMX 1740): 0.015 µg/mL (≈ 0.0415 µM) | MIC (Haemophilus influenzae [4]; H. influenzae MMX 1741): 0.015 µg/mL (≈ 0.0415 µM) | MIC (Haemophilus influenzae [4]; H. influenzae MMX 2795, BLNAR): 0.015 µg/mL (≈ 0.0415 µM) | MIC (Haemophilus influenzae [4]; H. influenzae MMX 2796, BLNAR): 0.015 µg/mL (≈ 0.0415 µM) | MIC (Haemophilus influenzae [4]; H. influenzae MMX 2798, BLNAR): 0.015 µg/mL (≈ 0.0415 µM) | MIC (Haemophilus influenzae [4]; H. influenzae MMX 2799, BLNAR): 0.015 µg/mL (≈ 0.0415 µM) | MIC (Haemophilus influenzae [4]; H. influenzae MMX 5458): 0.015 µg/mL (≈ 0.0415 µM) | MIC (Haemophilus influenzae [4]; H. influenzae MMX 5461): 0.03 µg/mL (≈ 0.083 µM) | MIC (Haemophilus influenzae [4]; H. influenzae MMX 5469): 0.015 µg/mL (≈ 0.0415 µM) | MIC (Haemophilus influenzae [4]; H. influenzae MMX 5494): 0.015 µg/mL (≈ 0.0415 µM) | MIC (Haemophilus influenzae [4]; H. influenzae MMX 5495): 0.015 µg/mL (≈ 0.0415 µM) | MIC (Haemophilus influenzae [4]; H. influenzae MMX 5499): 0.015 µg/mL (≈ 0.0415 µM)

CC1(C)S[C@@H]2[C@H](NC(=O)[C@H](N)c3ccccc3)C(=O)N2[C@H]1C(=O)O [AMP]
CLSI Quality Control Range (MIC) (Haemophilus influenzae [3]; in µg/mL): 2-8 | MIC (Haemophilus influenzae [4]; H. influenzae MMX 0797, BLNAR): 4 µg/mL (≈ 11.4 µM) | MIC (Haemophilus influenzae [4]; [6]): 2 µg/mL (≈ 5.72 µM) | MIC (Haemophilus influenzae [4]; H. influenzae MMX 1302): 0.25 µg/mL (≈ 0.715 µM) | MIC (Haemophilus influenzae [4]; H. influenzae MMX 1304): 0.25 µg/mL (≈ 0.715 µM) | MIC (Haemophilus influenzae [4]; H. influenzae MMX 1740): 4 µg/mL (≈ 11.4 µM) | MIC (Haemophilus influenzae [4]; H. influenzae MMX 1741): 4 µg/mL (≈ 11.4 µM) | MIC (Haemophilus influenzae [4]; H. influenzae MMX 2795, BLNAR): 4 µg/mL (≈ 11.4 µM) | MIC (Haemophilus influenzae [4]; H. influenzae MMX 2796, BLNAR): 2 µg/mL (≈ 5.72 µM) | MIC (Haemophilus influenzae [4]; H. influenzae MMX 2798, BLNAR): 4 µg/mL (≈ 11.4 µM) | MIC (Haemophilus influenzae [4]; H. influenzae MMX 2799, BLNAR): 4 µg/mL (≈ 11.4 µM) | MIC (Haemophilus influenzae [4]; H. influenzae MMX 5458): 0.12 µg/mL (≈ 0.343 µM) | MIC (Haemophilus influenzae [4]; H. influenzae MMX 5461): 0.5 µg/mL (≈ 1.43 µM) | MIC (Haemophilus influenzae [4]; H. influenzae MMX 5469): 4 µg/mL (≈ 11.4 µM) | MIC (Haemophilus influenzae [4]; H. influenzae MMX 5494): 0.12 µg/mL (≈ 0.343 µM) | MIC (Haemophilus influenzae [4]; H. influenzae MMX 5495): 0.25 µg/mL (≈ 0.715 µM) | MIC (Haemophilus influenzae [4]; H. influenzae MMX 5499): 0.25 µg/mL (≈ 0.715 µM)

NCC[C@H](O)C(=O)N[C@@H]1C[C@H](N)[C@@H](O[C@H]2O[C@H](CN)[C@@H](O)[C@H](O)[C@H]2O)[C@H](O)[C@H]1O[C@H]1O[C@H](CO)[C@@H](O)[C@H](N)[C@H]1O [Amikacin, reference compound]
MIC (B. cepacia): > 64 µg/mL | MIC (Achromobacter spp.): > 64 µg/mL | MIC (S. maltophilia): 64 µg/mL (≈ 109 µM) | Expected MIC: goal (acceptable range) (S. aureus ATCC 29213): 2 µg/mL | FICB (P. aeruginosa; [7]): […] | MICB (P. aeruginosa; [7]): 128 µg/mL | FICB (P. aeruginosa; [8]): […] | MICB (P. aeruginosa; [8]): […] | FICB (P. aeruginosa; [9]): […] | MICB (P. aeruginosa; [9]): 4 µg/mL | MIC (P. aeruginosa; Pseudomonas aeruginosa, P. aeruginosa 6977, Amikacin alone (checkerboard with BisEDT), read-out: Drug B MIC): 16 µg/mL | MIC (B. multivorans): > 64 µg/mL | Expected MIC: goal (acceptable range) (E. coli ATCC 25922): 1 to 2 µg/mL | MIC (B. cenocepacia; Burkholderia cenocepacia, strain BC15, read-out: MIC): > 64 µg/mL | MIC (B. cenocepacia; strain AU197): >64 µg/mL | FICB ([5]; B. cenocepacia 548, FIC of Amikacin (Drug B) in combination with BisEDT): […] | MICB ([5]; B. cenocepacia 548): […] | FICB ([5]; B. cenocepacia 813, FIC of Amikacin (Drug B) in combination with BisEDT): […] | MICB ([5]; B. cenocepacia 813): […] | FICB ([5]; B. cepacia 546, Amikacin in combination with BisEDT, by checkerboard, Table 60): […] | FICB ([5]; B. cepacia 1793, FIC of Amikacin (Drug B) in combination with BisEDT): […] | MICB ([5]; B. cepacia 1793): […] | FICB ([5]; B. multivorans 1795, FIC of Amikacin (Drug B) in combination with BisEDT): […] | MICB ([5]; B. multivorans 1795): […]

CC[C@H]1OC(=O)[C@H](C)[C@@H](O[C@H]2C[C@@](C)(OC)[C@@H](O)[C@H](C)O2)[C@H](C)[C@@H](O[C@@H]2O[C@H](C)C[C@H](N(C)C)[C@H]2O)[C@](C)(O)C[C@@H](C)CN(C)[C@H](C)[C@@H](O)[C@]1(C)O [AZM]
CLSI Quality Control Range (MIC) (Haemophilus influenzae [3]; in µg/mL): 1-4 | MIC (Haemophilus influenzae [4]; H. influenzae MMX 0797, BLNAR): 2 µg/mL (≈ 2.67 µM) | MIC (Haemophilus influenzae [4]; [6]): 2 µg/mL (≈ 2.67 µM) | MIC (Haemophilus influenzae [4]; H. influenzae MMX 1302): 2 µg/mL (≈ 2.67 µM) | MIC (Haemophilus influenzae [4]; H. influenzae MMX 1304): 2 µg/mL (≈ 2.67 µM) | MIC (Haemophilus influenzae [4]; H. influenzae MMX 1740): 4 µg/mL (≈ 5.34 µM) | MIC (Haemophilus influenzae [4]; H. influenzae MMX 1741): 1 µg/mL (≈ 1.34 µM) | MIC (Haemophilus influenzae [4]; H. influenzae MMX 2795, BLNAR): 2 µg/mL (≈ 2.67 µM) | MIC (Haemophilus influenzae [4]; H. influenzae MMX 2796, BLNAR): 2 µg/mL (≈ 2.67 µM) | MIC (Haemophilus influenzae [4]; H. influenzae MMX 2798, BLNAR): 0.5 µg/mL (≈ 0.668 µM) | MIC (Haemophilus influenzae [4]; H. influenzae MMX 2799, BLNAR): 0.5 µg/mL (≈ 0.668 µM) | MIC (Haemophilus influenzae [4]; H. influenzae MMX 5458): 1 µg/mL (≈ 1.34 µM) | MIC (Haemophilus influenzae [4]; H. influenzae MMX 5461): 2 µg/mL (≈ 2.67 µM) | MIC (Haemophilus influenzae [4]; H. influenzae MMX 5469): 2 µg/mL (≈ 2.67 µM) | MIC (Haemophilus influenzae [4]; H. influenzae MMX 5494): 1 µg/mL (≈ 1.34 µM) | MIC (Haemophilus influenzae [4]; H. influenzae MMX 5495): 0.5 µg/mL (≈ 0.668 µM) | MIC (Haemophilus influenzae [4]; H. influenzae MMX 5499): 2 µg/mL (≈ 2.67 µM)
